Patent US20120121670A1, “POLYARGININE NANOCAPSULES” (priority 2009, published 2012)

Tested on: NCI-H460 lung cancer cell line
Assay: Cell proliferation inhibition
Assay type: cell-based
Settings: Homo sapiens, docetaxel concentration, Graph Pad Prism 2.1, read-out: IC50 (concentration at which the proliferation of 50% of the population is inhibited)
Description: The % of cell viability at different concentrations of DCX is depicted for polyarginine NC, DCX in solution, polyarginine/DCX NC.
In order to evaluate the potential of the PArg nanocapsules encapsulating the docetaxel cytostatic molecule to inhibit the cell proliferation of the NCI-H460 lung cancer cell line the nanocapsules were prepared according to the method described in Example 3. The results shown in FIG. 9 show the great proliferation inhibition capacity of the nanocapsules encapsulating docetaxel in comparison with the free molecule. […] The IC50 values, concentration at which the proliferation of 50% of the population is inhibited, were calculated by means of the Graph Pad Prism 2.1 program (Graph Pad Software).

`CC(=O)O[C@@]12CO[C@@H]1C[C@H](O)[C@@]1(C)C(=O)[C@H](O)C3=C(C)[C@@H](OC(=O)[C@H](O)[C@@H](NC(=O)OC(C)(C)C)c4ccccc4)C[C@@](O)([C@@H](OC(=O)c4ccccc4)[C@H]21)C3(C)C` [docetaxel solution, docetaxel] was tested, and the IC50 was 13.3 nM.
